# Experimental data from a melting point compilation (Tetko et al.; mined from patent text by program, amines drawn as free bases though some values may be those of a salt).
# Residues, ends and D or L forms follow the SMILES beside them. *: point of attachment. Boc = CC(C)(C)OC(=O)*; NHNH2 = NN*
row,SMILES,melting point [°C]
1,COC(=O)c1cccc(-c2cc(-c3ccc(Cl)cc3)on2)c1,157 to 158
2,CC(C)c1cc(CCC(=O)O)n(Cc2ccc(Cl)cc2Cl)n1,105 to 108
3,COC(=O)C1=C(C)NC(N)=C(C(=O)OC(C)C)C1c1ccccc1C#N (stereo not given),211
4,Cc1nc2c(N)nc3ccccc3c2n1CCCNC(=O)C1CCCC1,208 to 209
5,CC1(C)CCC(C)(C)c2cc(-c3cc(-c4ccc(C(=O)O)cc4)ccc3OCC(O)CO)ccc21 (stereo not given),258
6,CSc1nc(Cl)nc(Cl)n1,57 to 59
7,CC1=C(C(=O)OCCCl)C(c2cccc([N+](=O)[O-])c2)C(C(=O)OCC(C)C)=C(C)N1 (stereo not given),150 to 153
8,CCOC(=O)N1C(=O)NC(=O)C12C(=O)N(Cc1ccc(Cl)c(Cl)c1)c1ccccc12 (stereo not given),192 to 194
9,Oc1ccccc1-c1ccc[nH]1,100 to 101
10,CCOC(=O)c1c(C)oc2cc(N(C(C)=O)S(C)(=O)=O)c(Oc3ccccc3)cc2c1=O,166 to 168
11,Cn1cncc1C(O)(c1ccc2c(c1)c(-c1cccc(Cl)c1)cc(=O)n2C)c1nccn1C (stereo not given),130
12,CC(C)(C)c1cc(NC(=O)Nc2cccc(Cl)c2Cl)c(-c2ccncc2)o1,195 to 198
13,CC(O)(C1=CCNCC1)c1ccc(F)cc1 (stereo not given),168
14,COC(=O)CCn1c(=O)n(CCN2CCN(c3ccccc3C)CC2)c(=O)c2cscc21,149 to 150
15,O=C(CC(F)(F)F)NCC(=O)n1ccc2cc(/C=C/C(c3cc(Cl)c(F)c(Cl)c3)C(F)(F)F)ccc21 (stereo not given),121 to 126
16,Cc1ccc(-c2cc[nH]c2C=O)cc1,149 to 150
17,O=C(CCl)Nc1ccc(C(O)(C(F)(F)F)C(F)(F)F)cc1O,218 to 219
18,COC(=O)CCC(=O)NS(=O)(=O)c1ccc([N+](=O)[O-])cc1,156
19,CCOC(=O)c1cnc2c(OC)csc2c1Nc1ccccc1C,141 to 143
20,O=C(C=Cc1ccc(COc2ccccc2)cc1)NC(Cc1ccccc1)C(=O)O (stereo not given),205
21,CCCCNCP(=O)(O)O,236 to 240
22,COc1cc(-c2ccc(N)nn2)ccc1OC(F)F,184
23,N#CCOc1ccc2cc(-c3csc(-c4ccccc4)n3)ccc2c1Br,157 to 160
24,Clc1cccc2c(CN3CCN(c4cc5ccccc5cn4)CC3)n[nH]c12,208 to 209
25,CN1N=C(c2ccccc2)C(C)(Cc2ccccc2)NC1=O (stereo not given),174 to 175

row,SMILES,melting point [°C]
1,C=Cc1ccc(C(=O)Oc2ccc(C(=O)O)cc2)cc1C12CC3CC(CC(C3)C1)C2,86 to 87
2,O=C(O)c1ccc(F)c(F)c1Nc1ccc(I)cc1Cl,226 to 227
3,O=C(c1ccccc1)c1ncc2n1CCC2C(=O)O (stereo not given),232 to 233
4,CCn1c(=O)n(CCC(C)C(C)=O)c(=O)c2c1ncn2CCOC (stereo not given),83 to 84
5,CCc1nnc(SCC2=C(C(=O)O)N3C(=O)C(NC(=O)Cc4csc(=O)s4)C3SC2)s1 (stereo not given),155
6,O=c1[nH]ncc2cc(CCc3ccccc3)ccc12,190 to 193
7,CCOC(=O)Cn1cc(-c2ccc(F)cc2)c(-c2ccc(S(C)(=O)=O)cc2)n1,116 to 118
8,N#Cc1ccc(C(F)(F)C23CCCN2C(=O)N(c2cc(Cl)cc(Cl)c2)C3=O)cc1 (stereo not given),66
9,O=C1NC(=S)NC(=O)C1=Cc1ccc[nH]1,280
10,CSc1ncc(C(=O)NCCO)c(Nc2ccc3[nH]ncc3c2)n1,> 270
11,CC(C)NCC(O)COc1cccnc1N (stereo not given),110
12,COOc1ccc(S(=O)(=O)c2cnc(C)nc2Cc2c(C)cc(C)cc2C)cc1,150 to 152
13,C=CC(=O)N1CC(O)CC1C(=O)OC (stereo not given),77 to 78
14,NS(=O)(=O)c1ccc(NC(=O)CNc2ccc(Cl)cc2)c(Cl)c1,185
15,CC(C)(Sc1cc(C(C)(C)C)c(O)c(C(C)(C)C)c1)Sc1cc(C(C)(C)C)c(OCCC(O)C(O)CCO)c(C(C)(C)C)c1 (stereo not given),75 to 77
16,CSCCCNc1cn(-c2cccnc2)nc1Cl,80 to 81
17,COC1(c2ccc(C)cc2)CCC(=O)CC1,76 to 76.5
18,CNC(=O)[C@@H](C[C@H](O)[C@H](CC1CCCCC1)NC(=O)[C@H](Cc1cscn1)NC(=O)[C@@H](CC(=O)N1CCOCC1)Cc1ccc(OC)cc1)C(C)C,128 to 130
19,CCOC(=O)c1cccn2cc(C(Cl)Cl)nc12,108 to 110
20,CCOC(=O)c1c(C)nc2ccn(-c3ccc(Cl)cc3)n2c1=O,175 to 177
21,Cc1cc(C)cc(Nc2nccc(-c3nc4ccccc4s3)n2)c1,217 to 219
22,COC(C)(C)C#Cc1ncn2c1CN(C)C(=O)c1cc(F)ccc1-2,149 to 150
23,Cc1ccc2c(Br)c(F)cc([N+](=O)[O-])c2n1,135 to 137
24,Cc1ccccc1CCNC(=O)c1ccc(Cl)cc1,95 to 96
25,O=C1CC(c2ccccc2)CC(=O)N1c1ccncc1,229 to 230

row,SMILES,melting point [°C]
1,Cn1cc(-c2cc3cccnc3[nH]2)c2cc(C(=O)NC(CO)CO)ccc21,178 to 179
2,O=C(Nc1cccnn1)N1CCN(c2nccc(-c3cc(F)cc(F)c3)n2)CC1,270 to 271
3,O=[N+]([O-])c1cc(Cl)cnc1N1CCN(C/C=C/c2ccc(C(F)(F)F)cc2)CC1,129 to 132
4,COCCN1CCc2ccc(Nc3ncc(Cl)c(N[C@@H]4CCCC[C@H]4NC(=O)C(F)(F)F)n3)cc2CC1,180 to 182
5,Nc1nc2c(c(N3CCN(CCc4ccccc4)CC3)n1)Cc1ccccc1-2,122 to 124
6,CC(C)(C)c1ccc(Cn2c(=O)n(Cc3ccc(C(C)(C)C)cc3)c3ccccc32)cc1,164 to 168
7,CON=C(C(C)=C(ON)c1ccccc1C(=NOC)C(=O)OC)c1ccc(Cl)cc1,115 to 117
8,O=C(Cc1cccnc1)c1ccc(Oc2ccccc2)cc1,81 to 83
9,CC(C)CCn1cc(C(=O)Nc2nccs2)c2ccc(Cl)cc21,179 to 180
10,O=C(Nc1ccc(-c2nc3ccccc3s2)cc1)C(Cl)Cl,223 to 225
11,CC(C)(C)c1ccccc1N1CCC(N)=N1,114
12,O=[N+]([O-])c1cc(CN(CCN=C=S)CCN=C=S)cc(CN(CCN=C=S)CCN=C=S)c1,62 to 64
13,CC(C)CC(NC(=O)OC(C)(C)C)C(=O)NCC(=O)NCC(=O)NC(C)C(=O)NCC(=O)NN (stereo not given) (Boc-LGGAG-NHNH2; configuration not given here),174 to 176
14,Cc1nc2scc(C)n2c(=O)c1CCN1CCC(Nc2nc3ccccc3n2Cc2ccc(F)cc2)CC1,141
15,CCCOc1ccccc1-c1nc(O)cc(C(=O)O)n1,180 to 182
16,CC1(CNC(=O)OCc2ccccc2)CCCCn2c1nc(-c1ccncn1)cc2=O (racemic),118 to 120
17,OCCOCC(O)c1ccc2sccc2c1 (stereo not given),119 to 120
18,CCOC(C#N)NC(=O)c1cccc(OC)c1 (stereo not given),72
19,Cc1[nH]c(=S)[nH]c(=O)c1Cc1cccnc1,328 to 331
20,CCCCOc1cc(/C=C(\OCC)C(=O)O)ccc1OCCc1ccc(OS(=O)(=O)CCCC)c(Cl)c1,80
21,CCSCCCCCCCCCCC(=O)O,58 to 61
22,CCn1c2ccccc2c2cc([N+](=O)[O-])ccc21,118 to 120
23,CCCN(CCC)Cc1nc(-c2ncn3c2[C@@H]2CCN2C(=O)c2c(Cl)cccc2-3)no1,147 to 153
24,COc1ccc(-c2ccncc2)cc1-c1ccc(Oc2ccccc2)cc1,173 to 218
25,Cc1nn(C)c(Cl)c1S(=O)(=O)Nc1ccc(Cl)cc1C(=O)Nc1ccc(S(=O)(=O)N2CCSCC2)cc1,215 to 216

row,SMILES,melting point [°C]
1,CN(C)C1(c2ccccc2)CCC(=O)CC1,104 to 108
2,Nc1ccc(Oc2ccc(C3(c4ccc(Oc5ccc(N)c(O)c5)cc4)C4CC5CC(C4)CC3C5)cc2)cc1O,> 160
3,CN(C)C=CC(=O)c1cccnn1,102 to 105
4,O=Cc1c(OCCCCC(=O)O)ccc(C(=O)O)c1O,165 to 166
5,CC(=O)CC(=O)NCC1(C)CC(NC(=O)CC(C)=O)CC(C)(C)C1 (stereo not given),144 to 147
6,O=C(OCc1ccccc1)[C@H](CC(=O)N1C[C@H]2CCCC[C@H]2C1)Cc1ccccc1,107 to 108
7,CNC(=O)c1c(N)n(C2CCCC2)c2nc(Cl)ccc2c1=O,256 to 258
8,C[C@](O)(COc1ccc(C#N)cc1)C(=O)Nc1ccc(C#N)c(C(F)(F)F)c1,92 to 94
9,CCCCc1c(C(=O)c2ccc(O)cc2)sc2ccc([N+](=O)[O-])cc12,182
10,C=C(F)c1c(C(=O)OC)nc(Cl)c(F)c1N,98 to 100
11,O=C1CCC(CN2C(=O)C3(COc4cc5c(cc43)OCO5)c3ccccc32)N1 (stereo not given),121 to 130
12,CC(=O)[C@H]1C[C@H](C(=O)OC(C)(C)C)N(C(=O)CNC(=O)Nc2cccc(C(=O)O)c2)[C@@H]1c1ccccc1 (racemic),145
13,CC(=O)SCC(Cc1ccc(-c2ccccc2)cc1)C(=O)N[C@@H](CSCc1ccc(C)cc1)C(=O)O (stereo not given in full),131 to 135
14,CN(C)CCCC#Cc1cnc(N)nc1,126 to 127
15,CCOC(=O)COc1ccc(S(=O)(=O)CCNS(=O)(=O)c2ccccc2)cc1,86.5 to 88
16,CCS(=O)(=O)c1ccccc1S(N)(=O)=O,179 to 181
17,C#Cc1ccc(C#Cc2ccncc2)s1,134 to 136
18,CCCc1nn(C)c2c(=O)[nH]c(Cc3ccc(O)cc3)nc12,260
19,CCOC(=O)C(=O)Nc1ccc(NC(=O)C(=O)OCC)cc1,214 to 217
20,CCOC(=O)C1=C(C)NC(C)=C(C(=O)OCC)C1c1ccccc1/C=C/c1ccccc1,187 to 188
21,Sc1nc2cnccc2[nH]1,> 320
22,O=S(=O)(c1cc(Cl)[nH]c1-c1ccc(Cl)cc1)C(F)(F)F,109 to 112
23,O=C(O)C[C@H](NC(=O)/C=C/C(=O)c1ccccc1)C(=O)O,154 to 156
24,Cc1nnc2n1-c1sc(Cl)cc1C(c1ccccc1C(F)(F)F)=NC2,193 to 195
25,CCCCCCCCCCc1ccc2cc(OC)ccc2c1,48.6 to 49.3
